# Data taken from US9687486B2, “Methods of treating atherosclerosis or myeloproliferative neoplasms by administering a lyn kinase activator” (THE TRUSTEES OF COLUMBIA UNIVERSITY IN THE CITY OF NEW YORK, priority 2012, dated 2017).
# Where a SMILES comes first, the peptide text is derived from it. The star is where a group is joined. Cbz = O=C(OCc1ccccc1)*
# What was measured:
# c-CBL = assay: c-Cbl tyrosine phosphorylation in MkPs in response to TPO, flow cytometry; assay type: cell-based, mouse
# Experimental: BM progenitor cells were stimulated with TPO at the indicated concentration for the specified period of time at 37° C. and then immediately diluted with ice-cold buffer and placed on ice to prevent further changes in phosphorylation. Cells were then centrifuged and the pellet resuspended in BD fix buffer (BD Biosciences) for 10 mins on ice. The cells were washed with BD flow cytometry staining buffer, centrifuged and then resuspended in BD cytofix/perm buffer III for 20 mins. After this the cells were washed and resuspended in BD staining buffer and incubated with lineage (Sca1, CD127, CD45R, CD19, CD11b, CD3e, TER-119, CD2, CD8, CD4, and Ly-6G; all FITC; eBioscience) and progenitor cell markers, ckit, CD16/CD32 (FcγRII/III), CD34, CD41 and anti-phospho-c-Cbl ([…]/[…]; BD biosciences) or an isotype control for 30 mins on ice. The cells were then washed, resuspended in FACS buffer and run on an LSRII. Phosphorylated c-Cbl was normalized against isotype control staining.
# c-MPL [1] = assay: Cell surface c-MPL levels in MkPs by flow cytometry; assay type: cell-based, mouse; conditions: TPO 30 ng/ml
# Experimental: Detection of c-MPL from in vivo and in vitro experiments was performed as follows. After harvesting BM progenitor cells, RBCs were lysed and the cells were then resuspended in FACS buffer. Cells were then stained with a cocktail of lineage markers to allow negative selection of BM progenitor cells (Sca1, CD127, CD45R, CD19, CD11b, CD3e, TER-119, CD2, CD8, CD4, and Ly-6C/G; all FITC; eBioscience) and progenitor cell markers, ckit, CD16/CD32 (FcγRII/III), CD34, CD41 and c-MPL or isotype control and allowed to stain on ice for 30 mins. Cells were then washed and stained with a fluorescently conjugated secondary anti-rabbit antibody to detect the anti-c-MPL for a further 30 mins on ice. After this the cells were washed, resuspended in FACS buffer and run on the LSRII. MEPs were identified as lin^− ckit^+CD16/CD32^loCD34^loCD41^−, while MkPs were identified as lin^−ckit^+CD16/CD32^loCD34^loCD41^+.
# p-STAT-5 and p-ERK1/2 = assay: p-STAT5 and p-ERK1/2 levels in MkPs with or without TPO; assay type: cell-based, mouse; conditions: WT and Abcg4−/− MkPs; TPO 30 ng/ml for 10 minutes
# Experimental: FIG. 3. Shown are results all from WT, Abcg4^−/− or Lyn^−/− MkPs (n=4). (A) Quantification of tyrosine-phosphorylated c-CBL in response to TPO. (B) Tyrosine-phosphorylated c-CBL levels 5 min after TPO treatment and with or without pretreatment with CD (3 mM), CD-chol (3 mM CD) for 30 min or rHDL (20 μg apoA-I/ml) for 2 hours. (C) Tyrosine-phosphorylated c-CBL with or without 5 min TPO treatment or SU6656 pretreatment (10 μg/ml for 2 h). (D) Cell surface c-MPL with or without TPO or SU6656 treatment for 2 h. (E) Tyrosine-phosphorylated c-CBL (5 min in response to TPO). (F) cell surface c-MPL (2 h TPO treatment) with or without pretreatment with CD-chol (3 mM CD) for 30 min. (G) 16 h EdU incorporation in the presence of TPO and with or without CD (3 mM), CD-Chol (3 mM CD) pretreatment for 30 min or rHDL (20 μg/ml) for 16 h. (H) p-STAT-5 and p-ERK1/2 levels with or without TPO for 10 minutes. TPO was 30 ng/ml for all the assays shown. Error bars are S.E.M. *P<0.05 WT vs Abcg4^−/− TPO and ^P<0.05 for treatment effect.
# platelets = assay: Platelet count after a single dose of recombinant TPO in chow-fed mice; assay type: in vivo, mouse; conditions: single dose TPO 50 μg/kg BW
# Experimental: FIG. 2. (A) Abcg4 mRNA expression in various types of BM and peripheral white blood cells in WT mice determined by q-PCR. (n=5). (B) Quantification of BM cell populations and (C) cell surface c-MPL levels of Ldlr^−/− recipient mice fed WTD for 12 weeks (n=5). (D) MK-CFU assay using HPCs harvested by FACS from WT or Abcg4^−/− mice. (E) Platelet count in the WT and Abcg4^−/− mice (n=5) receiving a single dose of TPO (50 μg/kg BW) or the vehicle control. The representative of two studies with similar results is shown. (F) Bodipy-cholesterol efflux from WT or Abcg4^−/− MkPs to CD (2 mM) or rHDL (20 μg/ml) for 2 hours (n=4). (G) Bodipy-cholesterol levels in WT or Abcg4^−/− MkPs following CD/Bodipy-cholesterol loading (n=4). (H) EdU incorporation into and (I) cell surface c-MPL of WT or Abcg4^−/− MkPs were determined by flow cytometry (n=4). Error bars are S.E.M. *P<0.05 WT versus Abcg4^−/− groups and ^P<0.05 for treatment effect.
# Mice and Treatments Abcg4^−/−, Abcg1 Abca1^−/−, and Abcg1^−/− mice were created as described (Wang, N. et al. 2006; Yvan-Charvet, L. et al. 2010) and used in this study. Abcg4^−/− mice have been backcrossed onto C57BL6/J mice for more than 10 generations. WT (C57BL/6J) and Ldlr^−/− (B6.12957-Ldlrtm1Her) were obtained from The Jackson Laboratory (Bar Harbor, Me.). […]
# CBCs were quantified using whole blood collected from the tail bleeding. […]
# c-MPL [2] = target: T1, c-MPL (Mus musculus, UniProt Q08351); conditions: mice and other species; Broudy & Lin 2004; cited from earlier work
# T1 construct: increasing platelet counts in mice and other species; host or cells: mice (in vivo)
# T1 sequence (Q08351 26-625): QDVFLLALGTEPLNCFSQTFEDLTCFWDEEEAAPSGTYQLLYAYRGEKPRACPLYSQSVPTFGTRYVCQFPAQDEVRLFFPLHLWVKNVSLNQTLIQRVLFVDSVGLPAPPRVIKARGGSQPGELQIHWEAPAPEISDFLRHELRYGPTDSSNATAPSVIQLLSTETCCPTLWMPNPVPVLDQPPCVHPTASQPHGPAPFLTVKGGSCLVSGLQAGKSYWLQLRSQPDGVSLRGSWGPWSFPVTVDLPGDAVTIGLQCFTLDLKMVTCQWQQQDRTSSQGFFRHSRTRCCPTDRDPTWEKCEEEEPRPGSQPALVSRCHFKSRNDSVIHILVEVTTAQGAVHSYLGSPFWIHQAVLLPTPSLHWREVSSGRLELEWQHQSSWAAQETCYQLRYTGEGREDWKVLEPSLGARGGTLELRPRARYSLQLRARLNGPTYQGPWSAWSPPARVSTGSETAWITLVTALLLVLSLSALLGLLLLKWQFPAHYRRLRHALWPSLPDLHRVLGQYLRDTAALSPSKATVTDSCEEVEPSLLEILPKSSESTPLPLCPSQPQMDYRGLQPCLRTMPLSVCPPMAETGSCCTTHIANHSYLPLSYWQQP
# [3] = test system: LacZ-positive splenic cells; assay: LacZ-positive splenic cells after phenylhydrazine injection; assay type: in vivo, mouse; conditions: Abcg4−/− mice on chow diet, 3 days after injections
# Text: FIG. 6. (A) Representative of LacZ staining of BM sections of WT or Abcg4^−/− mice fed chow diet. Megakaryocytes are indicated by black arrows while LacZ-positive cells are indicated by white arrows Original magnification 20×. (B) Lac-Z staining of spleen of WT and Abcg4^−/− mice fed the chow diet and (C) from Abcg4^−/− BM Ldlr^−/− recipient mice fed WTD for 12 weeks. (D) Representative LacZ staining of spleen sections and quantification of LacZ-positive splenic cells of Abcg4^−/− mice fed the chow diet 3 days after either vehicle or phenylhydrazine injections. Error bars are S.D (n=5). * P<0.05.
# Tissues and proximal aortas were serially paraffin sectioned and stained with H&E for morphological analysis as described^2. Aortic lesion size of each animal was calculated as the mean of lesion areas in 5 sections from the same mouse. Bone samples were decalcified with EDTA solution prior to cryosectioning. Von Willibrand Factor antibody (Dako, Catalog #A0082) was used to stain MKs. Lac-Z staining of frozen sections of mouse bone, spleen or proximal aorta was carried out using β-Galactosidase Staining Kit (Cell Signaling Technology, Danvers, Mass.).
# MkPs = assay: MkP proliferation by EdU incorporation; assay type: cell-based, mouse; conditions: in the presence of TPO
# Experimental: FIG. 3. Shown are results all from WT, Abcg4^-/- or Lyn^-/- MkPs (n=4). (A) Quantification of tyrosine-phosphorylated c-CBL in response to TPO. (B) Tyrosine-phosphorylated c-CBL levels 5 min after TPO treatment and with or without pretreatment with CD (3 mM), CD-chol (3 mM CD) for 30 min or rHDL (20 μg apoA-I/ml) for 2 hours. (C) Tyrosine-phosphorylated c-CBL with or without 5 min TPO treatment or SU6656 pretreatment (10 μg/ml for 2 h). (D) Cell surface c-MPL with or without TPO or SU6656 treatment for 2 h. (E) Tyrosine-phosphorylated c-CBL (5 min in response to TPO). (F) cell surface c-MPL (2 h TPO treatment) with or without pretreatment with CD-chol (3 mM CD) for 30 min. (G) 16 h EdU incorporation in the presence of TPO and with or without CD (3 mM), CD-Chol (3 mM CD) pretreatment for 30 min or rHDL (20 μg/ml) for 16 […]-5 and p-ERK1/2 levels with or without TPO for 10 minutes. TPO was 30 ng/ml for all the assays shown. Error bars are S.E.M. *P<0.05 WT vs Abcg4^-/- TPO and ^P<0.05 for treatment effect. Blood leukocytes and BM HSPCs were stained and analyzed or sorted as described (Murphy, A. J. et al. 2011). Briefly, BM cells from the mouse femurs and tibias were stained with a cocktail of antibodies to lineage committed cells (CD45R, CD19, CD11b, CD3e, TER-119, CD2, CD8, CD4, Ly-6C/G: All FITC, eBioscience), antibodies to Sca1 (Pacific Blue) and ckit (APC Cy7) to identify HSPC populations and LSK (lin-, Sac1+ and ckit+) cells, and antibodies to CD16/CD32 (FcγRII/III), CD34 to separate CMP (lin-, Sca1-, ckit+, CD34int, […] (lin-, Sca1-, ckit+, CD34int, […] (lin-, Sca1-, ckit+, CD34lo, FcγRII/IIIlo). For DNA content analysis (G2M phase), BM cells were fixed, and stained with DAPI (Invitrogen) prior to flow cytometry analysis. To determine in vivo cell proliferation, EdU (Invitrogen) was injected into mice via the tail vein 24 hours prior to being sacrificed. Cells were immunostained as described above in preparation for flow cytometry. Cells were then fixed and permeabilized using 0.01% saponin (w/v; Fluka) and 1% FCS (v/v) in IC fixation buffer (eBiosciences) for 30 minutes. Cells were then washed and stained with Alexa Fluor-conjugated azides using the Click-iT system (Invitrogen). Proliferation was quantified as percentage of EdU^+ cells by flow cytometry.
# [4] = test system: total BM cells from WT or Abcg4−/− mice; assay: MK-CFU assay with total BM cells, with or without CD pretreatment; assay type: cell-based, mouse; conditions: CD 3 mM pretreatment for 30 minutes
# Experimental: FIG. 13. (A) Fluorescence confocal microscopy of WT or Abcg4^−/− MkPs treated with CD/Bodipy-cholesterol (0.03 mM CD) for 30 min and (B) confocal microscopy and quantification of fillipin stained WT or Abcg4^−/− MkPs. Gene expression was determined by q-PCR in (C) MEPs or (D) GMPs from the WT or Abcg4^−/− BM Ldlr^−/− recipient mice (n=5) fed WTD for 12 weeks. Error bars are S.D (n=10). *P<0.05. (E) MK-CFU assays using total BM cells from WT or Abcg4^−/− mice with or without pretreatment with CD (3 mM) for 30 minutes. Error bars are S.E.M. *P<0.05.
# Primary BM HSPC cells obtained by FACS were plated in methylcellulose-based media (5000 cells/assay) containing TPO (50 ng/mL), IL-6 (20 ng/mL), and IL-3 (10 ng/mL) and incubated for 8 days according to manufacturer's protocol (Megacult-C, Stemcell Technologies). Cultures were fixed and the MK colonies visualized by staining for acethylcholinesterase activity. Nuclei were counterstained with Harris' hematoxylin. Colonies containing more than 3 megakaryocytes were scored as CFU-Mk.
compound,measurement,setting,value
CN(C)S(=O)(=O)c1ccc2c(c1)/C(=C/c1cc3c([nH]1)CCCC3)C(=O)N2 [SU6656],c-CBL tyrosine phosphorylation,c-CBL; WT and Abcg4−/− MkPs,markedly decreased
same,cell surface c-MPL levels,c-MPL [1]; WT and Abcg4−/− MkPs,increased
CC(C)C[C@@H](C=O)NC(=O)[C@H](CC(C)C)NC(=O)[C@H](CC(C)C)NC(=O)OCc1ccccc1 [MG132] (Cbz-Leu-Leu-Leu-aldehyde),cell surface c-MPL levels,c-MPL [1]; WT MkPs,increased
"TPO: Thrombopoietin, growth factor regulating megakaryocyte/platelet lineage development (R&D Systems)",p-ERK1/2 levels,p-STAT-5 and p-ERK1/2,increased
same,p-STAT5 levels,p-STAT-5 and p-ERK1/2,increased
same,increase in platelets,platelets; chow-fed Abcg4−/− mice,2.1 fold
same,increase in platelets,platelets; chow-fed WT mice,1.4 fold
Romiplostim,platelet counts,c-MPL [2],increasing
CCN(CC)CCO[C@H]1CC[C@@]2(C)C(=CC[C@@H]3[C@@H]2CC[C@]2(C)C(=O)CC[C@@H]32)C1 [U18666A],c-CBL tyrosine phosphorylation,c-CBL; Abcg4−/− MkPs,reversed
same,cell surface c-MPL levels,c-MPL [1]; Abcg4−/− MkPs,reversed
NNc1ccccc1 [phenylhydrazine],LacZ positive cells in the spleen,[3],marked expansion
cyclodextrin [CD],c-CBL tyrosine phosphorylation,c-CBL; WT and Abcg4−/− MkPs,increased
same,MkP proliferation,MkPs; Lyn−/− MkPs,completely unresponsive
same,MkP proliferation,MkPs; WT MkPs,decreased
same,MkP proliferation,MkPs; WT and Abcg4−/− MkPs,significantly reduced
same,increase in megakaryocyte colonies associated with ABCG4 deficiency,[4],reversed
same,cell surface c-MPL levels,c-MPL [1]; WT and Abcg4−/− MkPs,significantly reduced
